US9518015B2, “EP1 receptor ligands” (LABORATORIOS DEL DR. ESTEVE, S.A., priority 2011, dated 2016)

Target: T1, human EP1 receptor (Homo sapiens, UniProt P34995)
T1 sequence (P34995 1-402): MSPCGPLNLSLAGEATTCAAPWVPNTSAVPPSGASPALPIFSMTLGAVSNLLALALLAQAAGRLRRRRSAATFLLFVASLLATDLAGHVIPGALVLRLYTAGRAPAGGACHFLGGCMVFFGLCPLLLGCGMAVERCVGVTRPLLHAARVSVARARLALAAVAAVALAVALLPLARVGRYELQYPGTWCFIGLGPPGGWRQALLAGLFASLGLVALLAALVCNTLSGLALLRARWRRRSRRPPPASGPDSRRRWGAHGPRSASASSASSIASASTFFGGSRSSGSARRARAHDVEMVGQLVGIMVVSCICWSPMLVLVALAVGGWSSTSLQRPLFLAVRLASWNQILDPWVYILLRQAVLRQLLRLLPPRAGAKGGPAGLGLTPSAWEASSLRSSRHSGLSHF
Test: Test 2: Measurement of IP1 responses by HTRF, suspended HEK-293 cells stably expressing human EP1 receptors, PGE2 30 nM
Assay type: cell-based
Parameters: expressed in transfected cells
Conditions: HEK293, at 10 μM, read-out: Results of Test 2 (Functional assay), % inh
Protocol: Test 2: Measurement of IP1 responses by Homogeneous Time Resolved Fluorescence
IP1 measurements on HEK-293 cells that stably expressed human EP1 receptors were performed by using a system based on Homogeneous Time Resolved Fluorescense (HTRF) (Gabriel et al., 2003). This technology allows the direct measurement of IP1 in living cells. The principle of this assay is based on competition between IP1 produced by cells and IP1-d2 conjugate for the binding with monoclonal anti-IP1-cryptate conjugate. The HTRF IP1 kit from CisBio was used according to the manufacturer's directions. The experimental procedure was performed as stated below.
Suspended cells (30,000 cells per well) were added to 96-well culture plates in 40 μl of stimulation buffer (supplied by the kit). Compounds were then added in 20 μl of stimulation buffer and incubated at 37° C. for 15 minutes followed by 10 μl of PGE2 to a final concentration of […]. After 90 minutes at 37° C., the reaction was stopped lysing the cells with a mixture of 15 μl of cryptate and 15 μl of IP1-d2 prepared in the lysis buffer supplied by the manufacturer. Plates were incubated for an additional hour at room temperature and read at 665 nm/620 nm using an UltraEvolution Plate reader (Tecan).
Antagonist percentage inhibition was calculated relating compounds activity to the 0% inhibition of the wells incubated with 10 nM PGE2 alone and 100% inhibition of the wells incubated with 10 nM PGE2 plus 1 μM of the reference antagonist.

Inhibition at 10 µM, > 75%:
O=C(O)c1cccc2c1ccn2Cc1cc(Br)ccc1OCc1ccc(F)cc1 [Example 4, 1-(5-bromo-2-((4-fluorobenzyl)oxy)benzyl)-1H-indole-4-carboxylic acid]
O=C(O)c1cccc2c1ccn2Cc1cc(Cl)ccc1OCc1ccc(F)cc1 [Example 5, 1-(5-chloro-2-((4-fluorobenzyl)oxy)benzyl)-1H-indole-4-carboxylic acid]
O=C(O)c1cccc2c1CCN2Cc1cc(Cl)ccc1OCc1ccc(Cl)cc1F [Example 93, 1-(5-chloro-2-((4-chloro-2-fluorobenzyl)oxy)benzyl)indoline-4-carboxylic acid]
O=C(O)c1cccc2c1ccn2Cc1cc(C(F)(F)F)ccc1OCc1c(F)cccc1F [Example 37, 1-(2-((2,6-difluorobenzyl)oxy)-5-(trifluoromethyl)benzyl)-1H-indole-4-carboxylic acid]
O=C(O)c1cccc2c1ccn2Cc1cc(Br)ccc1OCc1ccccc1 [Example 2, 1-(2-(benzyloxy)-5-bromobenzyl)-1H-indole-4-carboxylic acid]
CC(Oc1ccc(Cl)cc1Cn1ccc2c(C(=O)O)cccc21)c1ccc(F)cc1F (stereo not drawn) [Example 23]
CC(c1cc(Cl)ccc1OCc1ccc(Cl)cc1F)n1ccc2c(C(=O)O)cccc21 (stereo not drawn) [Example 42, 1-(1-(5-chloro-2-((4-chloro-2-fluorobenzyl)oxy)phenyl)ethyl)-1H-indole-4-carboxylic acid]
O=C(O)c1cccc2c1ccn2Cc1cc(Cl)ccc1OCC1CC1 [Example 7, 1-(5-chloro-2-(cyclopropylmethoxy)benzyl)-1H-indole-4-carboxylic acid]
O=C(O)c1cccc2c1ccn2Cc1cc(F)ccc1OCc1ccc(F)cc1 [Example 35, 1-(5-fluoro-2-((4-fluorobenzyl)oxy)benzyl)-1H-indole-4-carboxylic acid]
O=C(O)c1cccc2c1ccn2Cc1cc(C(F)(F)F)ccc1OCc1ccccc1F [Example 52, 1-(2-((2-fluorobenzyl)oxy)-5-(trifluoromethyl)benzyl)-1H-indole-4-carboxylic acid]
O=C(O)c1cccc2c1ccn2Cc1cc(C(F)(F)F)ccc1OCc1ccccc1 [Example 3, 1-(2-(benzyloxy)-5-(trifluoromethyl)benzyl)-1H-indole-4-carboxylic acid]
O=C(O)c1cccc2c1ccn2Cc1cc(F)ccc1OCc1ccc(F)cc1C(F)(F)F [Example 18, 1-(5-fluoro-2-((4-fluoro-2-(trifluoromethyl)benzyl)oxy)benzyl)-1H-indole-4-carboxylic acid]
O=C(O)c1cccc2c1ccn2Cc1cc(Cl)ccc1CCc1ccc(Cl)cc1F [Example 63, 1-(5-chloro-2-(4-chloro-2-fluorophenethyl)benzyl)-1H-indole-4-carboxylic acid]
O=C(O)c1cccc2c1ccn2Cc1cc(Cl)ccc1OCc1ccc(F)cc1F [Example 43, 1-(5-chloro-2-((2,4-difluorobenzyl)oxy)benzyl)-1H-indole-4-carboxylic acid]
O=C(O)c1ccc2ccn(Cc3cc(Br)ccc3OCc3ccccc3)c2c1 [Example 87, 1-(2-(benzyloxy)-5-bromobenzyl)-1H-indole-6-carboxylic acid]
O=C(O)c1ccnc2c1ccn2Cc1cc(Cl)ccc1OCc1ccc(Cl)cc1F [Example 90, 1-(5-chloro-2-((4-chloro-2-fluorobenzyl)oxy)benzyl) -1H-pyrrolo[2,3-b]pyridine-4-carboxylic acid]
O=C(O)COc1cccc2c1ccn2Cc1cc(Cl)ccc1OCC1CC1 [Example 85, 2-((1-(5-chloro-2-(cyclopropylmethoxy)benzyl)-1H-indol-4-yl)oxy)acetic acid]
O=C(O)c1cccc2c1ccn2Cc1cc(C(F)(F)F)ccc1OCc1ccc(Cl)cc1F [Example 6, 1-(2-((4-chloro-2-fluorobenzyl)oxy)-5-(trifluoromethyl)benzyl)-1H-indole-4-carboxylic acid]
O=C(O)c1cccc2c1CCCN2Cc1cc(Cl)ccc1OCc1ccc(Cl)cc1F [Example 94, 1-(5-chloro-2-((4-chloro-2-fluorobenzyl)oxy)benzyl) -1,2,3,4-tetrahydroquinoline-5-carboxylic acid]
O=C(O)/C=C/c1cccc2c1ccn2Cc1cc(Cl)ccc1OCC1CC1 [Example 81, (E)-3-(1-(5-chloro-2-(cyclopropylmethoxy)benzyl)-1H-indol-4-yl)acrylic acid]
O=C(O)c1cccc2c1CCCN2Cc1cc(Cl)ccc1OCc1ccc(F)cc1F [Example 95]
O=C(O)c1ccc2c(ccn2Cc2cc(F)ccc2OCc2cc(F)c(F)cc2F)c1 [Example 65]
O=C(O)c1cccc2c1ccn2Cc1cc(Cl)ccc1OCc1ccc(Br)cc1F [Example 46, 1-(2-((4-bromo-2-fluorobenzyl)oxy)-5-chlorobenzyl)-1H-indole-4-carboxylic acid]
O=C(O)COc1cccc2c1ccn2Cc1cc(C(F)(F)F)ccc1OCc1ccc(Cl)cc1F [Example 84, 2-((1-(2-((4-chloro-2-fluorobenzyl)oxy)-5-(trifluoromethyl)benzyl)-1H-indol-4-yl)oxy)acetic acid]
O=C(O)c1cccc2c1ccn2Cc1cc(F)ccc1OCc1ccc(F)cc1F [Example 53, 1-(2-((2,4-difluorobenzyl)oxy)-5-fluorobenzyl)-1H-indole-4-carboxylic acid]
O=C(O)/C=C/c1cccc2c1ccn2Cc1cc(C(F)(F)F)ccc1OCc1ccccc1 [Example 79, (E)-3-(1-(2-(benzyloxy)-5-(trifluoromethyl)benzyl)-1H-indol-4-yl)acrylic acid]

Inhibition at 10 µM, 45 to 75%:
O=C(O)c1ccc2c(ccn2Cc2cc(F)ccc2OCc2cc(F)ccc2Cl)c1 [Example 73, 1-(2-((2-chloro-5-fluorobenzyl)oxy)-5-fluorobenzyl)-1H-indole-5-carboxylic acid]
O=C(O)c1cccc2c1ccn2Cc1cc(Cl)cc(Br)c1OCc1ccc(Br)cc1F [Example 28, 1-(3-bromo-2-((4-bromo-2-fluorobenzyl)oxy)-5-chlorobenzyl)-1H-indole-4-carboxylic acid]
O=C(O)c1ccc2c(ccn2Cc2cc(Br)ccc2OCc2ccc(F)cc2F)c1 [Example 74, 1-(5-bromo-2-((2,4-difluorobenzyl)oxy)benzyl)-1H-indole-5-carboxylic acid]
O=C(O)c1cccc2c1ccn2Cc1cc(F)ccc1OCc1cc(F)c(F)cc1Cl [Example 36, 1-(2-((2-chloro-4,5-difluorobenzyl)oxy)-5-fluorobenzyl)-1H-indole-4-carboxylic acid]
O=C(O)c1cccc2c1ccn2Cc1ncccc1OCc1ccc(Cl)cc1F [Example 61, 1-((3-((4-chloro-2-fluorobenzyl)oxy)pyridin-2-yl)methyl)-1H-indole-4-carboxylic acid]
O=C(O)c1ccc2c(ccn2Cc2cc(F)ccc2OCc2cc(F)c(F)c(F)c2)c1 [Example 71, 1-(5-fluoro-2-((3,4,5-trifluorobenzyl)oxy)benzyl)-1H-indole-5-carboxylic acid]
O=C(O)c1ccc2c(ccn2Cc2cc(Cl)ccc2OCc2ccc(Cl)cc2F)c1 [Example 76, 1-(5-chloro-2-((4-chloro-2-fluorobenzyl)oxy)benzyl)-1H-indole-5-carboxylic acid]

Same assay, conditions: at 10 μM

Results of Test 2 (Functional assay), % inh, $ (% inh > 75):
O=C(O)CCc1cccc2c1ccn2Cc1cc(Cl)ccc1OCc1ccc(Cl)cc1F [Example 62, 3-(1-(5-chloro-2-((4-chloro-2-fluorobenzyl)oxy)benzyl)-1H-indol-4-yl)propanoic acid]

Results of Test 2 (Functional assay), % inh, $$ (45 < % inh < 75):
O=C(O)CCc1cccc2c1ccn2Cc1cc(Cl)ccc1OCc1ccc(Cl)cc1F [Example 89, 3-(1-(5-chloro-2-((4-chloro-2-fluorobenzyl)oxy)benzyl)-1H-indol-4-yl)propanoic acid]
2-((1-(5-chloro-2-(cyclopropylmethoxy)benzyl)-1H-indol-4-yl)oxy)acetic acid [Example 86]
